In ChEMBL document CHEMBL3425417, “Synthesis and Structure-Activity Relationship Study of 1-Phenyl-1-(quinazolin-4-yl)ethanols as Anticancer Agents” (ACS Med Chem Lett, 2015):
Active and inactive are the calls of the source. The calls are words filed in the database; no cut-off is given here.

Columns and labels:
[1] = system: A549; experiment: Cytotoxicity against human A549 cells assessed as growth inhibition after 72 hrs by CellTiter 96 Aqueous one solution cell proliferation assay; format: functional, cell-based; settings: for IC50: A549, 72 h
[2] = target: T1, Tubulin (Homo sapiens) (UniProt P68371+Q9H4B7+P0DPH7+P68366+Q13509+Q71U36+P04350+Q3ZCM7+P07437+P68363+Q9BQE3+Q6PEY2+Q13885+Q9BVA1+Q9BUF5); experiment: Inhibition of tubulin (unknown origin) polymerization at 3 to 10 uM by fluorescence assay; format: protein-complex assay
[3] = system: NCI-H460; experiment: Cytotoxicity against human NCI-H460 cells assessed as growth inhibition after 72 hrs by CellTiter 96 Aqueous one solution cell proliferation assay; format: functional, cell-based; settings: NCI-H460, 72 h
[4] = Cytotoxicity against human HCT116 cells assessed as growth inhibition after 72 hrs by CellTiter 96 Aqueous one solution cell proliferation assay; format: functional, cell-based; settings: HCT-116, 72 h
[5] = system: MCF7; experiment: Cytotoxicity against human MCF7 cells assessed as growth inhibition after 72 hrs by CellTiter 96 Aqueous one solution cell proliferation assay; format: functional, cell-based; settings: MCF7, 72 h
[6] = Cytotoxicity against human PC3 cells assessed as growth inhibition after 72 hrs by CellTiter 96 Aqueous one solution cell proliferation assay; format: functional, cell-based; settings: PC-3, 72 h
[7] = system: HeLa; experiment: Cytotoxicity against human HeLa cells assessed as growth inhibition after 72 hrs by CellTiter 96 Aqueous one solution cell proliferation assay; format: functional, cell-based
[8] = system: A549; experiment: Cell cycle arrest in human A549 cells assessed as accumulation at G1 phase at 0.3 uM after 24 hrs by propidium iodide staining-based flow cytometric analysis (reference value: 75.9%); format: functional
[9] = system: A549; experiment: Cell cycle arrest in human A549 cells assessed as accumulation at G2/M phase at 0.3 uM after 24 hrs by propidium iodide staining-based flow cytometric analysis (reference value: 16.5%); format: functional
[10] = system: A549; experiment: Cell cycle arrest in human A549 cells assessed as accumulation at G1 phase at 1 uM after 24 hrs by propidium iodide staining-based flow cytometric analysis (reference value: 75.9%); format: functional
[11] = system: A549; experiment: Cell cycle arrest in human A549 cells assessed as accumulation at G2/M phase at 1 uM after 24 hrs by propidium iodide staining-based flow cytometric analysis (reference value: 16.5%); format: functional
[12] = system: A549; experiment: Cell cycle arrest in human A549 cells assessed as accumulation at G1 phase at 3 uM after 24 hrs by propidium iodide staining-based flow cytometric analysis (reference value: 75.9%); format: functional
[13] = system: A549; experiment: Cell cycle arrest in human A549 cells assessed as accumulation at G2/M phase at 3 uM after 24 hrs by propidium iodide staining-based flow cytometric analysis (reference value: 16.5%); format: functional
[14] = target: T1, Tubulin (Homo sapiens); experiment: Displacement of colchicine from tubulin (unknown origin) preincubated for 30 mins followed by colchicine addition measured after 30 mins by fluorescence assay; format: protein-complex assay
[15] = target: T1, Tubulin (Homo sapiens); settings: 45 uM
Description: Displacement of colchicine from tubulin (unknown origin) at 45 uM preincubated for 30 mins followed by colchicine addition measured after 30 mins by fluorescence assay

[16] = system: A549; experiment: Induction of microtubule destabilization in human A549 cells at 45 nM by DAPI-staining-based fluorescence microscopic analysis; format: cell-based
[17] = system: A549; experiment: Cell cycle arrest in human A549 cells assessed as accumulation at G2/M phase after 24 hrs by propidium iodide staining-based flow cytometric analysis; format: functional
[18] = system: A549; experiment: Induction of microtubule destabilization in human A549 cells at 4 uM by DAPI-staining-based fluorescence microscopic analysis; format: cell-based
[19] = target: T1, Tubulin (Homo sapiens); experiment: Inhibition of tubulin (unknown origin) polymerization at 10 uM by fluorescence assay; format: protein-complex assay

Row | SMILES | IC50 [1] | other results
1 | COc1ccc(C(C)(O)c2nc(C(Cl)(Cl)Cl)nc3ccccc23)cc1 (configuration not stated) | 0.038 µM | 
2 | COc1ccc(C(C)(O)c2ncnc3ccccc23)cc1 (stereo in doubt; (+)-1a) |  | growth inhibition (GI) [1]: Active; inhibition [2]: Active
3 | COc1ccc(C(C)(O)c2nc(C)nc3ccccc23)cc1 (configuration not stated) | 0.053 µM | 
4 | COc1ccc(C(C)(O)c2nc(Cl)nc3ccccc23)cc1 (configuration not stated) | 0.027 µM | 
5 | COc1ccc(C(C)(O)c2nc(SC)nc3ccccc23)cc1 (configuration not stated) | 0.067 µM | 
6 | COc1cc(C(C)(O)c2ncnc3ccccc23)cc(OC)c1OC (configuration not stated) | > 25 µM | 
7 | CC(O)(c1ccc(Cl)cc1)c1ncnc2ccccc12 (configuration not stated) | > 25 µM | 
8 | COc1ccc(C(C)(O)c2nc(-c3ccccc3Cl)nc3ccccc23)cc1 (configuration not stated) | 0.78 µM | 
9 | COc1ccc(C(C)(O)c2nc(Nc3ccccc3)nc3ccccc23)cc1 (configuration not stated) | 2.7 µM | 
10 | COc1ccc(C(C)(O)c2ncnc3ccccc23)cc1 (racemic) [listing 1 of 2 here] | 0.27 µM | IC50 [3]: 0.1 µM; IC50 [4]: 0.1 µM; IC50 [5]: 0.1 µM; IC50 [6]: 0.1 µM; IC50 [7]: 0.1 µM; Activity [8]: 56.9%; Activity [9]: 35.3%; Activity [10]: 23.7%; Activity [11]: 68.6%; Activity [12]: 18.3%; Activity [13]: 75.9%
11 | COc1ccc(C(C)(O)c2nc(-c3cccc(Cl)c3)nc3ccccc23)cc1 (configuration not stated) | 2.1 µM | 
12 | CC[C@]1(O)C[C@@H]2CN(CCc3c([nH]c4ccccc34)[C@@](C(=O)OC)(c3cc4c(cc3OC)N(C)[C@H]3[C@@](O)(C(=O)OC)[C@H](OC(C)=O)[C@]5(CC)C=CCN6CC[C@]43[C@@H]65)C2)C1 |  | inhibition [14]: inactive
13 | COc1ccc(C(O)(Cc2ccccc2)c2ncnc3ccccc23)cc1 (configuration not stated) | 9.8 µM | 
14 | CNc1ccc(C(C)(O)c2ncnc3ccccc23)cc1 (configuration not stated) | 4.1 µM | 
15 | COc1ccc(C(C)(O)c2nc(OC)nc3ccccc23)cc1 (configuration not stated) | 0.058 µM | 
16 | CCOc1ccc(C(C)(O)c2ncnc3ccccc23)cc1 (configuration not stated) | 0.3 µM | 
17 | COc1ccc(C(C)(O)c2ncnc3ccccc23)cc1 (single isomer, unassigned; (-)) |  | growth inhibition (GI) [1]: Active; inhibition [2]: Active
18 | COc1ccc(C(C)(O)c2nc(N(C)C)nc3ccccc23)cc1 (configuration not stated) | 0.21 µM | 
19 | CCOc1ccc(C(=O)c2ncnc3ccccc23)cc1 | > 25 µM | 
20 | CC(O)(c1ccc2c(c1)OCO2)c1ncnc2ccccc12 (configuration not stated) | 20 µM | 
21 | CC(O)(c1cccc(O)c1)c1ncnc2ccccc12 (configuration not stated) | > 25 µM | 
22 | CC(O)(c1ccccc1)c1ncnc2ccccc12 (configuration not stated) | > 25 µM | 
23 | COc1ccc(C(C)(O)c2nc(-c3ccc(Cl)cc3)nc3ccccc23)cc1 (configuration not stated) | 0.4 µM | 
24 | COc1cccc(C(C)(O)c2ncnc3ccccc23)c1 (configuration not stated) | > 25 µM | 
25 | COc1ccc(C(C)(O)c2nc(=O)[nH]c3ccccc23)cc1 (configuration not stated) | > 25 µM | 

Row | SMILES | IC50 [1] | other results
26 | CCCOc1nc(C(C)(O)c2ccc(OC)cc2)c2ccccc2n1 (configuration not stated) | 1.2 µM | 
27 | CC(O)(c1ccc(C(F)(F)F)cc1)c1ncnc2ccccc12 (configuration not stated) | > 25 µM | 
28 | COc1ccc(C(C)(O)c2nc(N3CCC(C)CC3)nc3ccccc23)cc1 (configuration not stated) | 19 µM | 
29 | COc1ccc(C(O)c2ncnc3ccccc23)cc1 (configuration not stated) | > 25 µM | 
30 | CCOc1nc(C(C)(O)c2ccc(OC)cc2)c2ccccc2n1 (configuration not stated) | 0.34 µM | 
31 | CC(O)(c1ccc(F)cc1)c1ncnc2ccccc12 (configuration not stated) | > 25 µM | 
32 | CSc1ccc(C(C)(O)c2ncnc3ccccc23)cc1 (configuration not stated) | 0.34 µM | 
33 | COc1ccc(C(C)(O)c2nc(Oc3ccccc3)nc3ccccc23)cc1 (configuration not stated) | 3.3 µM | 
34 | CCC(O)(c1ccc(OC)cc1)c1ncnc2ccccc12 (configuration not stated) | 1.8 µM | 
35 | CN(C)c1ccc(C(C)(O)c2ncnc3ccccc23)cc1 (configuration not stated) | 1.3 µM | 
36 | COC(=O)Nc1nc2cc(C(=O)c3cccs3)ccc2[nH]1 |  | inhibition [15]: Active
37 | COc1ccc(C(C)(O)c2nc(N3CCN(c4ccc(F)cc4)CC3)nc3ccccc23)cc1 (configuration not stated) | 1.9 µM | 
38 | CC(O)(c1ccc(OC(F)(F)F)cc1)c1ncnc2ccccc12 (configuration not stated) | > 25 µM | 
39 | COc1ccc(C(C)(O)c2nc(-c3ccsc3)nc3ccccc23)cc1 (configuration not stated) | 0.035 µM | 
40 | COc1ccc(C(O)(c2ncnc3ccccc23)C(F)(F)F)cc1 (configuration not stated) | 1.1 µM | 
41 | COc1cc2c(c(OC)c1OC)-c1ccc(OC)c(=O)cc1[C@@H](NC(C)=O)CC2 |  | Activity [16]: Active
42 | COc1ccc(C(C)(O)c2nc(N3CCOCC3)nc3ccccc23)cc1 (configuration not stated) | 0.17 µM | 
43 | COc1ccc(C(C)(O)c2ncnc3ccccc23)cc1 (racemic) [listing 2 of 2 here] |  | Activity [17]: Dose-dependent effect; Activity [18]: Active; inhibition [2]: Active; inhibition [14]: Dose-dependent effect
44 | C=CCOc1nc(C(C)(O)c2ccc(OC)cc2)c2ccccc2n1 (configuration not stated) | 0.41 µM | 
45 | CC(O)(c1cccc(OCc2ccccc2)c1)c1ncnc2ccccc12 (configuration not stated) | > 25 µM | 
46 | COc1ccc(C(C)(O)c2nc(-c3ccccc3)nc3ccccc23)cc1 (configuration not stated) | 0.1 µM | inhibition [19]: Active
47 | COc1ccc(C(C)(O)c2ncnc3ccccc23)cc1OC (configuration not stated) | 21 µM | 
48 | COc1ccc(C(C)(O)c2nc(N3CCCCC3)nc3ccccc23)cc1 (configuration not stated) | 2.7 µM | 
49 | COc1ccc(C(=O)c2ncnc3ccccc23)cc1 | 20 µM | 
50 | COc1ccc(C(C)(O)c2nc(OC)c3ccccc3n2)cc1 (configuration not stated) | 2 µM | 
